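Five compound concentrations were applied to cells in 96-well plates for 48 hours; endpoints were derived by simple linear interpolation of the resulting dose-response curve. GI50: concentration for 50% inhibition of growth.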 Activity calls are given as the source filed them. Cut-off read from the data, not from the text of the source: active = GI50 up to about 1.1 µM and inactive = higher.
How the values were obtained:
Assay in all cases: inhibition of tumour cell growth, NCI panel, 48 h
[1] = tested on: LOX IMVI
[2] = tested on: SK-MEL-28
[3] = tested on: COLO 205
[4] = tested on: HCT-116
[5] = tested on: UO-31
[6] = tested on: HOP-92
[7] = tested on: ACHN
[8] = tested on: SK-MEL-5
[9] = tested on: MCF7
[10] = tested on: Malme-3M
[11] = tested on: K562
[12] = tested on: A549
[13] = tested on: SK-OV-3
[14] = tested on: UACC-257
[15] = tested on: KM12
[16] = tested on: UACC-62
[17] = tested on: HL-60
[18] = tested on: NCI-H460
[19] = tested on: SK-MEL-2
[20] = tested on: OVCAR-5

SMILES | GI50 [1] | GI50 [2] | GI50 [3] | GI50 [4] | GI50 [5] | GI50 [6] | GI50 [7] | GI50 [8] | GI50 [9] | GI50 [10] | GI50 [11] | GI50 [12] | GI50 [13] | GI50 [14] | GI50 [15] | GI50 [16] | GI50 [17] | GI50 [18] | GI50 [19] | GI50 [20]
O=c1c2cc([N+](=O)[O-])ccc2n2n1Cc1ccccc1C2 | > 100 µM (inactive) | > 100 µM (inactive) | > 100 µM (inactive) | > 100 µM (inactive) | 53.3 µM (inactive) | > 100 µM (inactive) | > 100 µM (inactive) | 84.3 µM (inactive) | > 100 µM (inactive) | > 100 µM (inactive) | > 100 µM (inactive) | 79.3 µM (inactive) | > 100 µM (inactive) | > 100 µM (inactive) | > 100 µM (inactive) | > 100 µM (inactive) | > 100 µM (inactive) | 40.6 µM (inactive) |  | 
COc1cccc2c1[C@H]1CO[C@H]3C4C[C@H](C(=O)O)C([C@@H](C2)N13)N4C (stereo partly drawn) | 1.36 µM (inactive) | 2.1 µM (inactive) | 1.6 µM (inactive) | 2.53 µM (inactive) | 1.54 µM (inactive) | 1.66 µM (inactive) | 3.85 µM (inactive) | 1.88 µM (inactive) | 0.491 µM (active) | 2.61 µM (inactive) | 1.47 µM (inactive) | 8.18 µM (inactive) |  | 1.91 µM (inactive) |  | 1.12 µM (inactive) | 1.62 µM (inactive) | 3.93 µM (inactive) | 1.08 µM (active) | 2.37 µM (inactive)
O=c1cc(-c2ccc(O)cc2)n(C2CC2)c2ccccc12 | 4.67 µM (inactive) |  | 2.64 µM (inactive) | 2.75 µM (inactive) | 4.02 µM (inactive) | 3.52 µM (inactive) | 2.47 µM (inactive) | 6.4 µM (inactive) | 4.66 µM (inactive) |  | 7.87 µM (inactive) | 4.52 µM (inactive) | 9.08 µM (inactive) | 10.2 µM (inactive) | 3.45 µM (inactive) | 3.91 µM (inactive) | 19.7 µM (inactive) | 3.76 µM (inactive) | 2.77 µM (inactive) | 3.64 µM (inactive)
CCOC(=O)C(NS(=O)(=O)c1ccccc1)(C(F)(F)F)P(=O)(OCC(C)C)OCC(C)C (stereo not drawn) | > 100 µM (inactive) | > 100 µM (inactive) | > 100 µM (inactive) | > 100 µM (inactive) | 98.2 µM (inactive) | > 100 µM (inactive) | > 100 µM (inactive) | > 100 µM (inactive) | > 100 µM (inactive) | > 100 µM (inactive) | > 100 µM (inactive) | > 100 µM (inactive) | > 100 µM (inactive) | > 100 µM (inactive) | > 100 µM (inactive) | > 100 µM (inactive) | > 100 µM (inactive) | > 100 µM (inactive) |  | > 100 µM (inactive)
CNc1cc([N+](=O)[O-])ccc1C(=O)N1CCC[C@H]1CO | > 100 µM (inactive) | > 100 µM (inactive) |  | > 100 µM (inactive) | > 100 µM (inactive) | > 100 µM (inactive) | > 100 µM (inactive) |  | > 100 µM (inactive) |  | > 100 µM (inactive) | > 100 µM (inactive) | > 100 µM (inactive) | > 100 µM (inactive) | > 100 µM (inactive) | > 100 µM (inactive) | > 100 µM (inactive) | > 100 µM (inactive) | > 100 µM (inactive) | > 100 µM (inactive)
Cc1cc(C)c(P2C(=C(O[Si](C(C)C)(C(C)C)C(C)C)C(C)(C)C)C2(c2ccccc2)c2ccccc2)c(C)c1 (stereo not drawn) | > 100 µM (inactive) | > 100 µM (inactive) | > 100 µM (inactive) | 52.8 µM (inactive) | 76.9 µM (inactive) | > 100 µM (inactive) | > 100 µM (inactive) | > 100 µM (inactive) | > 100 µM (inactive) |  | 67 µM (inactive) | 61.8 µM (inactive) | > 100 µM (inactive) | > 100 µM (inactive) | 94 µM (inactive) | > 100 µM (inactive) | > 100 µM (inactive) | > 100 µM (inactive) | > 100 µM (inactive) | > 100 µM (inactive)
CC(=O)Nc1ccc2oc(=O)c3ccccc3c2c1 | > 100 µM (inactive) | > 100 µM (inactive) | > 100 µM (inactive) | > 100 µM (inactive) | > 100 µM (inactive) | > 100 µM (inactive) | > 100 µM (inactive) | > 100 µM (inactive) | > 100 µM (inactive) | > 100 µM (inactive) | > 100 µM (inactive) | > 100 µM (inactive) |  | > 100 µM (inactive) | > 100 µM (inactive) | 50.9 µM (inactive) | > 100 µM (inactive) | > 100 µM (inactive) | > 100 µM (inactive) | > 100 µM (inactive)
Cn1c(=O)oc2cc(C(O)CN3CCN(Cc4ccc5c(c4)OCO5)CC3)ccc21 (stereo not drawn) | > 100 µM (inactive) | > 100 µM (inactive) | > 100 µM (inactive) | > 100 µM (inactive) | > 100 µM (inactive) | > 100 µM (inactive) | > 100 µM (inactive) |  | > 100 µM (inactive) | > 100 µM (inactive) | > 100 µM (inactive) | > 100 µM (inactive) | > 100 µM (inactive) | > 100 µM (inactive) | > 100 µM (inactive) | > 100 µM (inactive) | > 100 µM (inactive) | > 100 µM (inactive) |  | > 100 µM (inactive)
COc1ccc(-n2sc3ncc(-c4ccccc4)cc3c2=O)cc1 | 32.1 µM (inactive) | 37 µM (inactive) | 56.4 µM (inactive) | 23.1 µM (inactive) | 21.7 µM (inactive) | 42.5 µM (inactive) | 21.6 µM (inactive) | 55.2 µM (inactive) | 28.6 µM (inactive) |  |  | 35.9 µM (inactive) | > 100 µM (inactive) | 57.8 µM (inactive) | 50 µM (inactive) | 31 µM (inactive) | 20.5 µM (inactive) | > 100 µM (inactive) | > 100 µM (inactive) | 26.2 µM (inactive)
COc1ccccc1/C=C/c1c(N)ncnc1Nc1cccc(Cl)c1 |  | 16.4 µM (inactive) |  | 23.5 µM (inactive) | 20.6 µM (inactive) | 0.243 µM (active) | 6.56 µM (inactive) | 22 µM (inactive) | 25.8 µM (inactive) | 30.5 µM (inactive) | 0.376 µM (active) | 14.6 µM (inactive) |  | 19.3 µM (inactive) | 36.5 µM (inactive) | 16.6 µM (inactive) | 0.282 µM (active) | 20.7 µM (inactive) | 18.6 µM (inactive) | 31.8 µM (inactive)
Oc1nc2c(c(-c3ccccc3Cl)n1)COC/C2=C\c1ccccc1Cl | > 100 µM (inactive) | > 100 µM (inactive) | > 100 µM (inactive) | > 100 µM (inactive) | 80.9 µM (inactive) | > 100 µM (inactive) | > 100 µM (inactive) | > 100 µM (inactive) | 65.9 µM (inactive) |  |  |  | > 100 µM (inactive) | > 100 µM (inactive) | > 100 µM (inactive) | > 100 µM (inactive) | 71.4 µM (inactive) | > 100 µM (inactive) | > 100 µM (inactive) | > 100 µM (inactive)

Source: ChEMBL document CHEMBL1201862, “PubChem BioAssay data set” (2004)
